Patent publication US20060099267A1, “High-dosage extended-release formulation of gepirone” (Fabre-Kramer Pharmaceuticals, Inc., priority 2004, published 2006)
Where a name gives a salt, the structure may show the parent alone.

How the values were obtained:
[1] = in vivo; cited from earlier work
[2] = test system: presynaptic α-2-adrenoceptor; conditions: cited from earlier work
[3] = test system: post-synaptic receptors in the hippocampus; conditions: cited from earlier work
[4] = target: T1, 5-HT1A receptors (Homo sapiens, UniProt P08908); conditions: cited from earlier work
T1 sequence (P08908 1-422): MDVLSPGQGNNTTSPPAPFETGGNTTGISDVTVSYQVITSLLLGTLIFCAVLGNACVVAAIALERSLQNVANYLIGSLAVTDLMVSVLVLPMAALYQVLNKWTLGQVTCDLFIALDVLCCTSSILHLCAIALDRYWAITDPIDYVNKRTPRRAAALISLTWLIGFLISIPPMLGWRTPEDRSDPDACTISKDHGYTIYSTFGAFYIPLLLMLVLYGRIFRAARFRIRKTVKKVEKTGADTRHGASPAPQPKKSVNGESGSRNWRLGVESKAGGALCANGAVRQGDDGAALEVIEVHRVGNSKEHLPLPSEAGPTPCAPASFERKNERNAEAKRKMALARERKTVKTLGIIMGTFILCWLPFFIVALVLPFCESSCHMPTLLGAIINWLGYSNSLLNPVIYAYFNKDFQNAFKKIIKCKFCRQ

[5] = immediate-release formulations; cited from earlier work
[6] = Open label, randomized, four-way crossover, single dose bioequivalence and pharmacokinetic study of extended-release gepirone tablets; assay type: in vivo, human; conditions: 40-80 mg dose range
Source text: Heretofore, efficacy and pharmacokinetic data for extended release gepirone tablets have been primarily obtained by administering one or multiple 20-mg extended-release gepirone tablets (similar to that described in the Preparation Example above).
To this end, an open label, randomized, four-way crossover, single dose study design was used with a washout phase of one week between different treatments. During each study period, the subjects were hospitalized from the afternoon before until 36 hours after gepirone administration. Following discharge, blood sample collections were taken at 48, 60, and 72 hours post-administration. […]
To determine the bioequivalence of one 80-mg extended-release gepirone tablet versus four 20-mg extended-release gepirone tablets the following pharmacokinetic parameter were calculated for each subject and treatment: • tmax (TMAX) • The actual time of occurrence of Cmax. • Cmax (CMAX) • The measured maximum concentration in plasma after single dosing. • dn-Cmax (DCMAX) • The dose-normalized Cmax was calculated as Cmax/Dose. • λZ (LZ) and t1/2 (THALF) • The slope (β) of the terminal log-linear phase of the concentration-versus-time curve was determined by linear regression. […] The terminal elimination rate constant (λZ) was defined as −β from which the elimination half-life (t1/2) was calculated as […]. […]

[7] = immediate-release formulations; cited from earlier work; remark: listed apart in the source

Row | SMILES | antidepressant-like characteristics in pre-clinical tests [1] | activity at presynaptic α-2-adrenoceptor [2] | agonism at post-synaptic receptors in the hippocampus [3] | affinity for 5-HT1A receptors [4] | time to maximum drug concentration of gepirone in the bloodstream (Tmax) [5] | dose proportionality [6] | T50 (time until 50% of the drug has been released under controlled in vitro conditions) [7] [h]
1 | c1cnc(N2CCNCC2)nc1 [1-PP, 1-(2-pyrimidinyl)piperazine] | did not exhibit antidepressant-like characteristics | antagonist |  |  |  |  | 
2 | CC1(C)CC(=O)N(CCCCN2CCN(c3ncccn3)CC2)C(=O)C1O (centres unmarked) [3′-OH gepirone] |  |  | full agonism | significant affinity |  |  | 
3 | CC1(C)CC(=O)N(CCCCN2CCN(c3ncccn3)CC2)C(=O)C1 [gepirone, 4,4-dimethyl-1-[4-[4-(2-pyrimidinyl)-1-piperazinyl]-butyl]-2,6-piperidinedione hydrochloride] |  |  | partial agonist |  | about 1 hour | dose proportionality | 2.5 to 3
